# According to patent US20080009418A1, “Selective Inhibitors” (Alchemia LTD., priority 2004, published 2008):
# Experiments:
# Settings in all cases: compound at 10 μM
# [1] = biological target: T1, Human μ-opioid (MOP) (Homo sapiens, UniProt P35372); assay: Radioligand binding, human μ-opioid (MOP) membranes, FlashPlate, [3H]-Naloxone
# T1 construct: purchased Perkin Elmer Biosignal
# How it was run: (§1)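 Cloned human receptor membranes were coated onto FlashPlate wells and incubated with radioligand and compound (added from a 0.5 mM DMSO daughter plate) for 1 hour at room temperature in the dark. Scintillation counting gave percent inhibition, with DMSO defining total and reference ligand defining non-specific binding.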
# [2] = biological target: T2, Human neurokinin (NK1) (Homo sapiens, UniProt P25103); assay: Radioligand binding, human neurokinin NK1 membranes, filtration, [125I]-Substance P
# T2 construct: purchased Perkin Elmer Biosignal
# How it was run: (§2)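 Membranes from cloned human receptors were incubated with compound and radioligand for 1 hour at room temperature. Bound ligand was collected on 0.3% PEI-soaked filters, washed with cold 50 mM Tris-HCl pH 7.4, and counted by scintillation. Percent inhibition was computed against DMSO totals and reference-ligand nonspecific wells.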
# [3] = biological target: T3, Human melanin-concentrating hormone (MCH1) (Homo sapiens, UniProt Q99705); assay: Radioligand binding, human melanin-concentrating hormone MCH1 membranes, FlashPlate, [125I]-S36057
# T3 construct: purchased Perkin Elmer Biosignal
# How it was run: as §1
# [4] = biological target: T4, Mouse urotensin (mUR2) (Mus musculus, UniProt Q8VIH9); assay: Radioligand binding, mouse urotensin mUR2 membranes, FlashPlate, [125I]-Urotensin II
# T4 construct: purchased Perkin Elmer Biosignal
# T4 sequence (Q8VIH9 1-385): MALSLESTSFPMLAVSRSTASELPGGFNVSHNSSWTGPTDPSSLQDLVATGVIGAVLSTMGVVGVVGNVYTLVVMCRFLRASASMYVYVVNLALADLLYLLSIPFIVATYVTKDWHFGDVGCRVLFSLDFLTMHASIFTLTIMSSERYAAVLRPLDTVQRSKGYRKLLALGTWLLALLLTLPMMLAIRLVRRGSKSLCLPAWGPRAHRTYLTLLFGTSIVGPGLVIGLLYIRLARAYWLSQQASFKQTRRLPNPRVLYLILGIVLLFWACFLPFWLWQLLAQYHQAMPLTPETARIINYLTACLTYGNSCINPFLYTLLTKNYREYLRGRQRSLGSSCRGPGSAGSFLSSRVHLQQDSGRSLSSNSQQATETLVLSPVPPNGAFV
# How it was run: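 Cloned mouse urotensin (mUR2) receptor membranes from Perkin Elmer Biosignal were immobilized in FlashPlate microplates using a proprietary coating. Each well got 19.5 μl buffer, then 0.5 μl of DMSO, reference ligand, or compound. Adding 5 μl of [125I]-Urotensin II, diluted to 5× final concentration in binding buffer, started binding. Plates were sealed with TopSeal-A and incubated 1 hour at room temperature in the dark. Wells were counted for 30 seconds each on a TopCount after a 60-second delay, and percentage inhibition was calculated.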
# [5] = biological target: T5, Human opioid (ORL1) (Homo sapiens, UniProt P41146); assay: Radioligand binding, human opioid ORL1 membranes, FlashPlate, [125I]-Nociceptin
# T5 construct: purchased Perkin Elmer Biosignal
# How it was run: as §1
# [6] = biological target: T6, Human δ-opioid (DOP) (Homo sapiens, UniProt P41143); assay: Radioligand binding, human δ-opioid (DOP) membranes, FlashPlate, [3H]-Bremazocine
# T6 construct: purchased Perkin Elmer Biosignal
# How it was run: as §1
# [7] = biological target: T7, Human neuropeptide Y (NPY-Y1) (Homo sapiens, UniProt P25929); assay: Radioligand binding, human neuropeptide Y NPY-Y1 membranes, FlashPlate, [125I]-PYY
# T7 construct: purchased Perkin Elmer Biosignal
# T7 sequence (P25929 1-384): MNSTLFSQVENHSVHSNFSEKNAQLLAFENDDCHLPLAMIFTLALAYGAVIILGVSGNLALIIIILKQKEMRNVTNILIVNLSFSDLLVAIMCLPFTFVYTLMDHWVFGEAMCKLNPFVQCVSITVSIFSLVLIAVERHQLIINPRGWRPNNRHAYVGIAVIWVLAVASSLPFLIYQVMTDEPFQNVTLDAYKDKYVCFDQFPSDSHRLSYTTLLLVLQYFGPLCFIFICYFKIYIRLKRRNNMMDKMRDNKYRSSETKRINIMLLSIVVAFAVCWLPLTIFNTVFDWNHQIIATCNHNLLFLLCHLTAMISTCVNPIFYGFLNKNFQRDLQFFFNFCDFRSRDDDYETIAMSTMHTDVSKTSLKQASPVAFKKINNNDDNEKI
# How it was run: as §1
# [8] = biological target: T8, Human melanocortin (MC5) (Homo sapiens, UniProt P33032); assay: Radioligand binding, human melanocortin MC5 membranes, FlashPlate, [125I]-NDP-αMSH
# T8 construct: purchased Perkin Elmer Biosignal
# How it was run: as §1
# [9] = biological target: T9, Human Melanocortin (MC3) (Homo sapiens, UniProt P41968); assay: Radioligand binding, human melanocortin MC3 membranes, FlashPlate, [125I]-NDP-αMSH
# T9 construct: purchased Perkin Elmer Biosignal
# How it was run: as §1
# [10] = biological target: T10, Human Melanocortin (MC4) (Homo sapiens, UniProt P32245); assay: Radioligand binding, human melanocortin MC4 membranes, FlashPlate, [125I]-NDP-αMSH
# T10 construct: purchased Perkin Elmer Biosignal
# How it was run: as §1
# [11] = biological target: T11, Human κ-Opioid (KOP) (Homo sapiens, UniProt P41145); assay: Radioligand binding, human κ-opioid (KOP) membranes, filtration, [3H]-Diprenorphine
# T11 construct: purchased Perkin Elmer Biosignal
# How it was run: as §2
# T11 sequence (P41145 whole entry): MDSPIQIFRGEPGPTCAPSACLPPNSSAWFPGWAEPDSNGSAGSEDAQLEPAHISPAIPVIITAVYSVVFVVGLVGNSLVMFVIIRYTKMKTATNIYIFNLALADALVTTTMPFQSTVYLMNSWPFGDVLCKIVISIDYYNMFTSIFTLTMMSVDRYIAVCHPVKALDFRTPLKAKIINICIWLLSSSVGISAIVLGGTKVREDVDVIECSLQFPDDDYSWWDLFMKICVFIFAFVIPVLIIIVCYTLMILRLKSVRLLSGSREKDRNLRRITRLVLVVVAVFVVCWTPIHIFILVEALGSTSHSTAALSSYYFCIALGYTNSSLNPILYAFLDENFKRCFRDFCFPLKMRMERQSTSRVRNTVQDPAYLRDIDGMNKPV
# T3 sequence (Q99705 whole entry): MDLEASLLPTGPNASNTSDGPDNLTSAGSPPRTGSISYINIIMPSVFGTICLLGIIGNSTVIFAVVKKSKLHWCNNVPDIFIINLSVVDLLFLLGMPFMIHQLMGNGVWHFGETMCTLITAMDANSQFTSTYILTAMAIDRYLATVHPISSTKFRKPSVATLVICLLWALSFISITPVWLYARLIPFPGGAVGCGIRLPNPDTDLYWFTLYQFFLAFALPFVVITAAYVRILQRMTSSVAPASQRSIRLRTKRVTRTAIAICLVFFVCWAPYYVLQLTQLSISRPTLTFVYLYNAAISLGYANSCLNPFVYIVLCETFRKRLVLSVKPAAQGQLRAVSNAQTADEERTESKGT
# T9 sequence (P41968 whole entry): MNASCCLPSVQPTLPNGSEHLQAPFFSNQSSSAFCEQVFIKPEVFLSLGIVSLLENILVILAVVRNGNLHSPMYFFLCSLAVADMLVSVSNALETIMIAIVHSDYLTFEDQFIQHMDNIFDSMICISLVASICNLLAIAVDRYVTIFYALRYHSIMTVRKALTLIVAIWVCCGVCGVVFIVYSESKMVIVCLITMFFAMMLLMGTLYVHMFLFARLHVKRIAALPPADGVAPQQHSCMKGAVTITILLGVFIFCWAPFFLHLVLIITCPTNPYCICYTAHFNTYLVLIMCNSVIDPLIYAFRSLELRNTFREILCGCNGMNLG
# T10 sequence (P32245 whole entry): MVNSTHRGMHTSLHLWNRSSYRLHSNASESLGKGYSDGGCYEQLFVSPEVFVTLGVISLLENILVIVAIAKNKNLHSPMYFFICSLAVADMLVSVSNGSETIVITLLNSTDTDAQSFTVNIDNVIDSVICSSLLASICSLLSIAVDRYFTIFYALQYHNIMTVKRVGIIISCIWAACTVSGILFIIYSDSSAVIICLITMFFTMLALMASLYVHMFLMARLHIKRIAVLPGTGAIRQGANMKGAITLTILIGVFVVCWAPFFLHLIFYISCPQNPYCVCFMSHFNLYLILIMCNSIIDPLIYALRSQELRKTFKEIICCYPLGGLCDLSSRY
# T8 sequence (P33032 whole entry): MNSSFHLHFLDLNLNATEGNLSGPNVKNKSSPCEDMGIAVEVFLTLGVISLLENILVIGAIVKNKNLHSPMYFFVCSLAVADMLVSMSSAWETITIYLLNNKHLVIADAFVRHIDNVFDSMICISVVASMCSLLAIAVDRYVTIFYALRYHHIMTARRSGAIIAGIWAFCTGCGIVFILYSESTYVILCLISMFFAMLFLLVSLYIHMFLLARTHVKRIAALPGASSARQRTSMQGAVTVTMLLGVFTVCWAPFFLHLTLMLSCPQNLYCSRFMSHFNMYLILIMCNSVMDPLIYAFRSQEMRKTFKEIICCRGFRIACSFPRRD
# T6 sequence (P41143 whole entry): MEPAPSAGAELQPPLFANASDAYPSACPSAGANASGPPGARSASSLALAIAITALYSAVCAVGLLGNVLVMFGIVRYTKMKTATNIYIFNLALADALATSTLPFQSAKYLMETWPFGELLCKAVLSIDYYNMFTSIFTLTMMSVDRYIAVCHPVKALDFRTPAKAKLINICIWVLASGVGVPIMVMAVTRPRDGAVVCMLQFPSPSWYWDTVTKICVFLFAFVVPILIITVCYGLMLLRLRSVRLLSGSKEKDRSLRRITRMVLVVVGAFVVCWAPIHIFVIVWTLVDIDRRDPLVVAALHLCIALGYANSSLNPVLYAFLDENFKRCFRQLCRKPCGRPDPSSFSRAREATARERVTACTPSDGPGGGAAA
# T2 sequence (P25103 whole entry): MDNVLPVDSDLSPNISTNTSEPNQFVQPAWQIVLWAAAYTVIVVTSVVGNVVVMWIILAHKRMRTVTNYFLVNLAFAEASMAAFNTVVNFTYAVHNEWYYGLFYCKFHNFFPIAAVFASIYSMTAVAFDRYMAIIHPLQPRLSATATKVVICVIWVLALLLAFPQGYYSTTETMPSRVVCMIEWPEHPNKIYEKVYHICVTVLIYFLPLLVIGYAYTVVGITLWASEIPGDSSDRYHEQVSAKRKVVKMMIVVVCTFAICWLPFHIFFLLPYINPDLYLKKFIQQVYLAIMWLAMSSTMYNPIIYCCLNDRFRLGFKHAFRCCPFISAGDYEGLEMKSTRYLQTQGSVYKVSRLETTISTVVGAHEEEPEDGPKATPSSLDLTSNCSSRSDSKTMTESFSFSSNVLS
# T1 sequence (P35372 whole entry): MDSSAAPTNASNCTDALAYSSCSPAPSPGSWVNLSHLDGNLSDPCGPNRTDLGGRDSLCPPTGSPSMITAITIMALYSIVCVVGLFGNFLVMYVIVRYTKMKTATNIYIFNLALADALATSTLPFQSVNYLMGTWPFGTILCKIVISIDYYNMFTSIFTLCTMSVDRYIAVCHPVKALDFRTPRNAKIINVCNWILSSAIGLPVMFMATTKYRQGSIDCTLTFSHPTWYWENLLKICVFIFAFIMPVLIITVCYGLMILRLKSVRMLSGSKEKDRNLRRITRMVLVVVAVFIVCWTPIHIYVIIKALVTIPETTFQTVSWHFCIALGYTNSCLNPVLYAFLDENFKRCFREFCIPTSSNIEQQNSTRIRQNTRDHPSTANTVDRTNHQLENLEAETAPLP
# T5 sequence (P41146 whole entry): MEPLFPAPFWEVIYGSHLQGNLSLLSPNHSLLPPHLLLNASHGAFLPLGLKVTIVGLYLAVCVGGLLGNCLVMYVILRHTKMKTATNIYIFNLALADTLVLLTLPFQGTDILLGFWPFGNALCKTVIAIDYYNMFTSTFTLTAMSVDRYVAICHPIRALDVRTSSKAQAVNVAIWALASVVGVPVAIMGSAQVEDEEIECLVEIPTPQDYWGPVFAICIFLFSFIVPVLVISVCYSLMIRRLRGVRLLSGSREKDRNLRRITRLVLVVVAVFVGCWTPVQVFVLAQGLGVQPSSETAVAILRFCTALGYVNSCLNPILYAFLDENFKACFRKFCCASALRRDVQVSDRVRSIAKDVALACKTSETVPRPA
structure (smiles),measurement,setting,value
N=C(N)NCCC(=O)NC1C(OCc2ccc(-c3ccccc3)cc2)OC(COCc2ccc(Cl)cc2)C(O)C1OCc1ccc2ccccc2c1 (stereo not drawn) [compound 413],A7: inhibition of radioligand binding,"[1]; [3H]-Naloxone, human MOP membranes",− (“−” indicates less than 50% inhibition at 10 μM)
same,A8: inhibition of radioligand binding,"[2]; [125I]-Substance P, human NK1 membranes",+ (“+” indicates greater than 50% inhibition at 10 μM)
same,A6: inhibition of radioligand binding,"[3]; [125I]-S36057, human MCH1 membranes",+ (“+” indicates greater than 50% inhibition at 10 μM)
same,A11: inhibition of radioligand binding,"[4]; [125I]-Urotensin II, mouse mUR2 membranes",− (“−” indicates less than 50% inhibition at 10 μM)
same,A10: inhibition of radioligand binding,"[5]; [125I]-Nociceptin, human ORL1 membranes",+ (“+” indicates greater than 50% inhibition at 10 μM)
same,A1: inhibition of radioligand binding,"[6]; [3H]-Bremazocine, human DOP membranes",− (“−” indicates less than 50% inhibition at 10 μM)
same,A9: inhibition of radioligand binding,"[7]; [125I]-PYY, human NPY-Y1 membranes",− (“−” indicates less than 50% inhibition at 10 μM)
same,A5: inhibition of radioligand binding,"[8]; [125I]-NDP-αMSH, human MC5 membranes",+ (“+” indicates greater than 50% inhibition at 10 μM)
same,A3: inhibition of radioligand binding,"[9]; [125I]-NDP-αMSH, human MC3 membranes",+ (“+” indicates greater than 50% inhibition at 10 μM)
same,A4: inhibition of radioligand binding,"[10]; [125I]-NDP-αMSH, human MC4 membranes",+ (“+” indicates greater than 50% inhibition at 10 μM)
same,A2: inhibition of radioligand binding,"[11]; [3H]-Diprenorphine, human KOP membranes",− (“−” indicates less than 50% inhibition at 10 μM)
COC[C@H]1OC(OCc2ccc3ccccc3c2)[C@H](NC(=O)CCCNC(=N)N)[C@@H](OCc2ccc(Cl)cc2)[C@@H]1O (stereo partly drawn) [compound 341],"A7: inhibition of radioligand binding, human μ-opioid (MOP)",[1]; [3H]-Naloxone,+ (“+” indicates greater than 50% inhibition at 10 μM)
same,"A8: inhibition of radioligand binding, human neurokinin (NK1)",[2]; [125I]-Substance P,+ (“+” indicates greater than 50% inhibition at 10 μM)
same,"A6: inhibition of radioligand binding, human melanin-concentrating hormone (MCH1)",[3]; [125I]-S36057,+ (“+” indicates greater than 50% inhibition at 10 μM)
same,"A11: inhibition of radioligand binding, mouse urotensin (mUR2)",[4]; [125I]-Urotensin II,− (“−” indicates less than 50% inhibition at 10 μM)
same,"A10: inhibition of radioligand binding, human opioid (ORL1)",[5]; [125I]-Nociceptin,− (“−” indicates less than 50% inhibition at 10 μM)
same,"A1: inhibition of radioligand binding, human δ-opioid (DOP)",[6]; [3H]-Bremazocine,− (“−” indicates less than 50% inhibition at 10 μM)
same,"A9: inhibition of radioligand binding, human neuropeptide Y (NPY-Y1)",[7]; [125I]-PYY,− (“−” indicates less than 50% inhibition at 10 μM)
same,"A5: inhibition of radioligand binding, human melanocortin (MC5)",[8]; [125I]-NDP-αMSH,− (“−” indicates less than 50% inhibition at 10 μM)
same,"A3: inhibition of radioligand binding, human melanocortin (MC3)",[9]; [125I]-NDP-αMSH,− (“−” indicates less than 50% inhibition at 10 μM)
same,"A4: inhibition of radioligand binding, human melanocortin (MC4)",[10]; [125I]-NDP-αMSH,− (“−” indicates less than 50% inhibition at 10 μM)
same,"A2: inhibition of radioligand binding, human κ-opioid (KOP)",[11]; [3H]-Diprenorphine,− (“−” indicates less than 50% inhibition at 10 μM)
CO[C@H]1[C@H](O)[C@@H](COCc2ccc3ccccc3c2)OC(OCc2ccccc2)[C@@H]1NC(=O)CCCNC(=N)N (stereo partly drawn) [compound 89],A7 radioligand binding inhibition,[1]; human μ-opioid (MOP) membranes,+ (“+” indicates greater than 50% inhibition at 10 μM)
same,A8 radioligand binding inhibition,[2]; human neurokinin NK1 membranes,+ (“+” indicates greater than 50% inhibition at 10 μM)
same,A6 radioligand binding inhibition,[3]; human MCH1 membranes,− (“−” indicates less than 50% inhibition at 10 μM)
same,A11 radioligand binding inhibition,[4]; mouse urotensin mUR2 membranes,− (“−” indicates less than 50% inhibition at 10 μM)
same,A10 radioligand binding inhibition,[5]; human ORL1 membranes,− (“−” indicates less than 50% inhibition at 10 μM)
same,A1 radioligand binding inhibition,[6]; human δ-opioid (DOP) membranes,− (“−” indicates less than 50% inhibition at 10 μM)
same,A9 radioligand binding inhibition,[7]; human NPY-Y1 membranes,− (“−” indicates less than 50% inhibition at 10 μM)
same,A5 radioligand binding inhibition,[8]; human melanocortin MC5 membranes,− (“−” indicates less than 50% inhibition at 10 μM)
same,A3 radioligand binding inhibition,[9]; human melanocortin MC3 membranes,− (“−” indicates less than 50% inhibition at 10 μM)
same,A4 radioligand binding inhibition,[10]; human melanocortin MC4 membranes,− (“−” indicates less than 50% inhibition at 10 μM)
same,A2 radioligand binding inhibition,[11]; human κ-opioid (KOP) membranes,− (“−” indicates less than 50% inhibition at 10 μM)
